Structures can show the parent of a compound that is named as a salt.
Test system: ISG reporter activity in THP1-Dual cell
Assay: ISG reporter assay
Assay type: cell-based
Conditions: Homo sapiens, compounds incubated with cells for 24 hours, QUANTI-Blue, absorbance at 655 nm
Method: [Worded in the source for another cell line; this cell line is reported under the same test.] THP1-Blue cells (cat. no. thp-isg) were purchased from InvivoGen (Sandiago, USA). Penicillin—streptomycin (cat. no. L0022-100), Fetal Bovine Serum (FBS) (cat. no. S1480-500) and Roswell Park Memorial Institute (RPMI) 1640 media (cat. L0498-500) were purchased from biowest (Nuaille, France). Zeocin (cat. no. ant-zn-OS) and Normocin (cat. no. ant-nr-1) were purchased from InvivoGen (Sandiago, USA). QUANTI-Blue™ (cat. no. rep-qbs) was purchased from InvivoGen. THP1-Blue cells were cultured in RPMI 1640 medium with 10% heat-inactivated FBS, 100 μg/ml Normocin, 100 μg/ml Zeocin and 100 U/ml-100 μg/ml penicillin-streptomycin. The cells were incubated at 37° C. in a humidified atmosphere of 5% CO2.
THP1-Blue cells were seeded at 5×10^4 cells/well (90 μl/well). 10 μl of compounds were added to the cells and incubated for 24 hours. 20 μl of cell culture supernatant was dispensed new 96-well plate (cat. no. 30096) with 180 μl of QUANTI-Blue™ solution and incubated for 15 minutes at 37° C. The absorbance was measured by Varioskan Lux (Thermofisher Scientific, USA) at 655 nm.

| Compound | EC50 [µM] |
| --- | --- |
| CCn1nc(C)cc1C(=O)Nc1nc2cc(C(N)=O)cc(OC)c2n1C/C=C/Cn1c(NC(=O)c2cc(C)nn2CC)nc2cc(C(N)=O)cc(OCC#CC3CCN(C(=O)OC(C)(C)C)CC3)c21 [Example 3, tert-butyl (E)-4-(3-((5-carbamoyl-1-(4-(5-carbamoyl-2-(1-ethyl-3-methyl-1H-pyrazole-5-carboxamido)-7-methoxy-1H-benzo[d]imidazol-1-yl)but-2-en-1-yl)-2-(1-ethyl-3-methyl-1H-pyrazole-5-carboxamido)-1H-benzo[d]imidazol-7-yl)oxy)prop-1-yn-1-yl)piperidine-1-carboxylate] | < 0.05 |
| CCN(CC)S(=O)(=O)N1CCC(C#CCOc2cc(C(N)=O)cc3nc(NC(=O)c4cc(C)nn4CC)n(C/C=C/Cn4c(NC(=O)c5cc(C)nn5CC)nc5cc(C(N)=O)cc(OC)c54)c23)CC1 [Example 25, (E)-1-(4-(5-carbamoyl-2-(1-ethyl-3-methyl-1H-pyrazole-5-carboxamido)-7-methoxy-1H-benzo[d]imidazol-1-yl)but-2-en-1-yl)-7-((3-(1-(N,N-diethylsulfamoyl)piperidin-4-yl)prop-2-yn-1-yl)oxy)-2-(1-ethyl-3-methyl-1H-pyrazole-5-carboxamido)-1H-benzo[d]imidazole-5-carboxamide] | < 0.05 |
| CCn1nc(C)cc1C(=O)Nc1nc2cc(C(N)=O)cc(OC)c2n1C/C=C/Cn1c(NC(=O)c2cc(C)nn2CC)nc2cc(C(N)=O)cc(OCC#CC3CCN(C(=O)OC4CCNCC4)CC3)c21 [Example 9, piperidin-4-yl (E)-4-(3-((5-carbamoyl-1-(4-(5-carbamoyl-2-(1-ethyl-3-methyl-1H-pyrazole-5-carboxamido)-7-methoxy-1H-benzo[d]imidazol-1-yl)but-2-en-1-yl)-2-(1-ethyl-3-methyl-1H-pyrazole-5-carboxamido)-1H-benzo[d]imidazol-7-yl)oxy)prop-1-yn-1-yl)piperidine-1-carboxylate hydrochloride] | 0.05 to 0.5 |
| CCn1nc(C)cc1C(=O)Nc1nc2cc(C(N)=O)cc(OC)c2n1C/C=C/Cn1c(NC(=O)c2cc(C)nn2CC)nc2cc(C(N)=O)cc(OCC#CCC3CCNCC3)c21 [Example 43, (E)-1-(4-(5-carbamoyl-2-(1-ethyl-3-methyl-1H-pyrazole-5-carboxamido)-7-((4-(piperidin-4-yl)but-2-yn-1-yl)oxy)-1H-benzo[d]imidazol-1-yl)but-2-en-1-yl)-2-(1-ethyl-3-methyl-1H-pyrazole-5-carboxamido)-7-methoxy-1H-benzo[d]imidazole-5-carboxamide hydrochloride] | 0.05 to 0.5 |
| CCn1nc(C)cc1C(=O)Nc1nc2cc(C(N)=O)cc(OC)c2n1C/C=C/Cn1c(NC(=O)c2cc(C)nn2CC)nc2cc(C(N)=O)cc(OCC#CCC3CCN(C(=O)N4CCN(C(=O)OC(C)(C)C)CC4)CC3)c21 [Example 47, tert-butyl (E)-4-(4-(4-((5-carbamoyl-1-(4-(5-carbamoyl-2-(1-ethyl-3-methyl-1H-pyrazole-5-carboxamido)-7-methoxy-1H-benzo[d]imidazol-1-yl)but-2-en-1-yl)-2-(1-ethyl-3-methyl-1H-pyrazole-5-carboxamido)-1H-benzo[d]imidazol-7-yl)oxy)but-2-yn-1-yl)piperidine-1-carbonyl)piperazine-1-carboxylate] | < 0.05 |
| CCn1nc(C)cc1C(=O)Nc1nc2cc(C(N)=O)cc(OC)c2n1C/C=C/Cn1c(NC(=O)c2cc(C)nn2CC)nc2cc(C(N)=O)cc(OCC#CC3CCN(C(=O)C4CCN(C(=O)OC(C)(C)C)CC4)CC3)c21 [Example 12, tert-butyl (E)-4-(4-(3-((5-carbamoyl-1-(4-(5-carbamoyl-2-(1-ethyl-3-methyl-1H-pyrazole-5-carboxamido)-7-methoxy-1H-benzo[d]imidazol-1-yl)but-2-en-1-yl)-2-(1-ethyl-3-methyl-1H-pyrazole-5-carboxamido)-1H-benzo[d]imidazol-7-yl)oxy)prop-1-yn-1-yl)piperidine-1-carbonyl)piperidine-1-carboxylate] | < 0.05 |
| CCn1nc(C)cc1C(=O)Nc1nc2cc(C(N)=O)cc(OC)c2n1C/C=C/Cn1c(NC(=O)c2cc(C)nn2CC)nc2cc(C(N)=O)cc(OCC#CC3CCN(C(=O)N4CCOCC4)CC3)c21 [Example 15, (E)-1-(4-(5-carbamoyl-2-(1-ethyl-3-methyl-1H-pyrazole-5-carboxamido)-7-((3-(1-(morpholine-4-carbonyl)piperidin-4-yl)prop-2-yn-1-yl)oxy)-1H-benzo[d]imidazol-1-yl)but-2-en-1-yl)-2-(1-ethyl-3-methyl-1H-pyrazole-5-carboxamido)-7-methoxy-1H-benzo[d]imidazole-5-carboxamide] | < 0.05 |
| CCn1nc(C)cc1C(=O)Nc1nc2cc(C(N)=O)cc(OC)c2n1C/C=C/Cn1c(NC(=O)c2cc(C)nn2CC)nc2cc(C(N)=O)cc(OCC#CCC3CCN(S(=O)(=O)N4CCN(C(=O)OC(C)(C)C)CC4)CC3)c21 [Example 49, tert-butyl (E)-4-((4-(4-((5-carbamoyl-1-(4-(5-carbamoyl-2-(1-ethyl-3-methyl-1H-pyrazole-5-carboxamido)-7-methoxy-1H-benzo[d]imidazol-1-yl)but-2-en-1-yl)-2-(1-ethyl-3-methyl-1H-pyrazole-5-carboxamido)-1H-benzo[d]imidazol-7-yl)oxy)but-2-yn-1-yl)piperidin-1-yl)sulfonyl)piperazine-1-carboxylate] | < 0.05 |
| CCn1nc(C)cc1C(=O)Nc1nc2cc(C(N)=O)cc(OC)c2n1C/C=C/Cn1c(NC(=O)c2cc(C)nn2CC)nc2cc(C(N)=O)cc(OCC#CC3CCN(C(=O)NC4CC4)CC3)c21 [Example 14, (E)-1-(4-(5-carbamoyl-2-(1-ethyl-3-methyl-1H-pyrazole-5-carboxamido)-7-methoxy-1H-benzo[d]imidazol-1-yl)but-2-en-1-yl)-7-((3-(1-(cyclopropylcarbamoyl)piperidin-4-yl)prop-2-yn-1-yl)oxy)-2-(1-ethyl-3-methyl-1H-pyrazole-5-carboxamido)-1H-benzo[d]imidazole-5-carboxamide] | < 0.05 |
| CCn1nc(C)cc1C(=O)Nc1nc2cc(C(N)=O)cc(OC)c2n1C/C=C/Cn1c(NC(=O)c2cc(C)nn2CC)nc2cc(C(N)=O)cc(OCC#CCC3CN(C(=O)OC(C)(C)C)C3)c21 [Example 50, tert-butyl (E)-3-(4-((5-carbamoyl-1-(4-(5-carbamoyl-2-(1-ethyl-3-methyl-1H-pyrazole-5-carboxamido)-7-methoxy-1H-benzo[d]imidazol-1-yl)but-2-en-1-yl)-2-(1-ethyl-3-methyl-1H-pyrazole-5-carboxamido)-1H-benzo[d]imidazol-7-yl)oxy)but-2-yn-1-yl)azetidine-1-carboxylate] | < 0.05 |
| CCn1nc(C)cc1C(=O)Nc1nc2cc(C(N)=O)cc(OC)c2n1C/C=C/Cn1c(NC(=O)c2cc(C)nn2CC)nc2cc(C(N)=O)cc(OCC#CCC3CCN(C(=O)OC4CC4)CC3)c21 [Example 44, cyclopropyl (E)-4-(4-((5-carbamoyl-1-(4-(5-carbamoyl-2-(1-ethyl-3-methyl-1H-pyrazole-5-carboxamido)-7-methoxy-1H-benzo[d]imidazol-1-yl)but-2-en-1-yl)-2-(1-ethyl-3-methyl-1H-pyrazole-5-carboxamido)-1H-benzo[d]imidazol-7-yl)oxy)but-2-yn-1-yl)piperidine-1-carboxylate] | < 0.05 |
| CCn1nc(C)cc1C(=O)Nc1nc2cc(C(N)=O)cc(OC)c2n1C/C=C/Cn1c(NC(=O)c2cc(C)nn2CC)nc2cc(C(N)=O)cc(OCC#CC3CCN(S(=O)(=O)c4ccc(C)cc4)CC3)c21 [Example 23, (E)-1-(4-(5-carbamoyl-2-(1-ethyl-3-methyl-1H-pyrazole-5-carboxamido)-7-((3-(1-tosylpiperidin-4-yl)prop-2-yn-1-yl)oxy)-1H-benzo[d]imidazol-1-yl)but-2-en-1-yl)-2-(1-ethyl-3-methyl-1H-pyrazole-5-carboxamido)-7-methoxy-1H-benzo[d]imidazole-5-carboxamide] | < 0.05 |
| CCn1nc(C)cc1C(=O)Nc1nc2cc(C(=O)O)cc(OC)c2n1C/C=C/Cn1c(NC(=O)c2cc(C)nn2CC)nc2cc(C(N)=O)cc(OCC#CC3CCN(C(=O)OC(C)(C)C)CC3)c21 [Example 1, (E)-1-(4-(7-((3-(1-(tert-butoxycarbonyl)piperidin-4-yl)prop-2-yn-1-yl)oxy)-5-carbamoyl-2-(1-ethyl-3-methyl-1H-pyrazole-5-carboxamido)-1H-benzo[d]imidazol-1-yl)but-2-en-1-yl)-2-(1-ethyl-3-methyl-1H-pyrazole-5-carboxamido)-7-methoxy-1H-benzo[d]imidazole-5-carboxylic acid] | > 0.5 |
| CCn1nc(C)cc1C(=O)Nc1nc2cc(C(N)=O)cc(OC)c2n1C/C=C/Cn1c(NC(=O)c2cc(C)nn2CC)nc2cc(C(N)=O)cc(OCC#CC3CCN(C(=O)C(C)(C)C)CC3)c21 [Example 11, (E)-1-(4-(5-carbamoyl-2-(1-ethyl-3-methyl-1H-pyrazole-5-carboxamido)-7-((3-(1-pivaloylpiperidin-4-yl)prop-2-yn-1-yl)oxy)-1H-benzo[d]imidazol-1-yl)but-2-en-1-yl)-2-(1-ethyl-3-methyl-1H-pyrazole-5-carboxamido)-7-methoxy-1H-benzo[d]imidazole-5-carboxamide] | < 0.05 |
| CCn1nc(C)cc1C(=O)Nc1nc2cc(C(N)=O)cc(OC)c2n1C/C=C/Cn1c(NC(=O)c2cc(C)nn2CC)nc2cc(C(N)=O)cc(OCC#CCN3CCN(C(=O)OC(C)(C)C)CC3)c21 [Example 37] | < 0.05 |
